Here are results for 2 compounds from article PMC5755735, “Discovery of indolylpiperazinylpyrimidines with dual-target profiles at adenosine A2A and dopamine D2 receptors for Parkinson's disease treatment” (PLoS ONE, 2018).

In series [1] the target is T1, human A2B receptors expressed in CHO cells (Homo sapiens, UniProt P29275).
T1 sequence (P29275 1-332): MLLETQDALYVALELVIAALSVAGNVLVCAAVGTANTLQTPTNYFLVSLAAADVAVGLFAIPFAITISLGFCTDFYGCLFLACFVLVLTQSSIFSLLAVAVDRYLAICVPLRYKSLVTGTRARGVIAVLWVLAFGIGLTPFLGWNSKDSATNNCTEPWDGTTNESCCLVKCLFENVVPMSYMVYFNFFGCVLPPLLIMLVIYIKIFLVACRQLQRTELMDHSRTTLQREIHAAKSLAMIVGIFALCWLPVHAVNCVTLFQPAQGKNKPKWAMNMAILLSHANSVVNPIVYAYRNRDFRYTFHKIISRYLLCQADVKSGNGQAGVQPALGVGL
Kind of series: inhibition of NECA-stimulated adenylyl cyclase activity at hA2B.
Experimental: For measurement of adenylyl cyclase activity in the hA2B receptors, one-step centrifugation procedure was used; the homogenate was sedimented for 30 min at 54,000 g. The so-obtained crude membrane pellet was re-suspended in 50 mM Tris/HCl, pH 7.4 and used for the adenylyl cyclase assay immediately.
The membranes were incubated with about 150,000 cpm of [α-^32P]adenosine triphosphate ([α-^32P]ATP) and test compounds in different concentrations for 20 min. A non-linear regression analysis was applied to calculate the IC50 of the adenylyl cyclase activity assay. From the IC50 values, Ki values were then calculated using the Cheng and Prusoff equation [46].

Series [2] has as its system parkin-null flies. Nature of the series: parkin-null Drosophila model of PD (climbing assay, DA neuron count). Format: in vivo. The settings on record: 50 μM. From the text:
(§1) Parkin-null (pk-/-) flies were first used to evaluate compound 5. […] (Fig 8B), the cluster used widely in the parkin-null flies. Compound 5 was subsequently examined for its ability to ameliorate LRRK2 G2019S-induced PD phenotypes. […] Taken together, these findings indicate that compound 5 acts as a suppressor of DA neuron dysfunction in two Drosophila genetic PD models—one with parkin-null which represents recessive PD, and one with transgene LRRK2 G2019S-mutant, which represents dominant PD.
(§2) Fly lines for 24B-Gal4 (muscle specific), ddc-Gal4 (dopaminergic neuron-specific), elav-Gal4 (pan-neuronal), UAS-mito-GFP, and UAS-dAMPK-KA were purchased from Bloomington Drosophila Stock Center. The parkin-null mutant flies were kind gifts from Chung J. and Cho K. S. (Korea Advanced Institute of Science and Technology, Daejeon, Korea). […] After a 2-hour recovery period from CO2 exposure, flies were gently tapped to the bottom of the column, and the number of flies that reached the top of column at 1 min was counted. […] DA neurons were quantified according to previously published method. The size of mito-GFP puncta was measured using the ImageJ program and expressed as mean ± SD (n ≥ 10 DA neurons per experimental group). Statistical significance for all the quantitative data obtained were analyzed using one-way ANOVA with Tukey’s test HSD post hoc test (*p < 0.05, **p < 0.01).

In series [3] the test system is LRRK2 G2019S-expressing flies. Kind of series: LRRK2 G2019S Drosophila model of PD (climbing assay, DA neuron count). Format: in vivo.
Excerpt: as §1, §2

Series [4] is described as follows: aqueous solubility. In kind it is physicochemical. The settings on record: universal aqueous buffer, 22.5 °C, pH 7.4, aqueous buffer, kinetic from dmso stock. The method, then:
The 10 μL stock solution of the ligand (10 mM in DMSO) was added to the universal aqueous buffer (pH 7.4), and the mixture was sonicated. 300 μL of the turbid mixture was transferred to the 3 wells of MultiScreen HTS- PCF filter plate (Millipore Corp., Ireland), and the plate was covered and incubated with gentle shaking (250 rpm, 3 h) at room temperature (22.5 ± 2.5°C). After the period of incubation (3 h), the filter plate was placed on a vacuum manifold and the contents were filtered into a 96-well UV plate. After filtration, 200 μL of filtrate was transferred from each well to the PP vial. Absorbances of the solutions were quantified by HPLC-UV and read at 250 nm.

Read-outs that look alike come from different tables or passages of the source.

As a reminder, the Ki is the equilibrium dissociation constant of an inhibitor or competing ligand from its target. Read a high Ki as lower affinity. `Cc1cc(C)nc(N2CCN(C(=O)Cc3c(C)[nH]c4ccccc34)CC2)n1` [Compound 6, 1‐[4‐(4,6‐Dimethylpyrimidin‐2‐yl)piperazin‐1‐yl]‐2‐(2‐methyl‐1H‐indol‐3‐yl)ethan‐1‐one]: the Ki in series [1] is > 20 µM.

As to `Cc1cc(C)nc(N2CCN(C(=O)c3c[nH]c4ccccc34)CC2)n1` [Compound 5, 3‐[4‐(4,6‐Dimethylpyrimidin‐2‐yl)piperazine‐1‐carbonyl]‐1H‐indole], in series [2], the “DA neuronal count (PPL1 cluster)” value was “reduction of DA neuron loss in the PPL1 cluster”. In addition, the climbing score entry was “improvement in climbing scores” in series [2] (compared with untreated mutant flies); “improvement in climbing (in a concentration-dependent manner)” in series [3] (50 μM and 100 μM). Also, the DA neuronal count result in series [3] (LRRK2 G2019S-expressing flies) is given as “mitigation of DA neuron degeneration”. Moreover, the solubility at 3 h is < 10 µg/mL in series [4] (ambient temperature, pH 7.4, guideline of Kerns et al. [40], read-out: aqueous solubility class); 27 ± 0.32 µM in series [4] (pH 7.4, 3 h, room temperature, read-out: Solubility (μM), 3 h); 9.07 ± 0.11 µg/mL in series [4] (pH 7.4, 3 h, room temperature, read-out: Solubility (μg/mL), 3 h).
